Patent US20140212502A1, “NANO- AND MICRO-BUBBLES WITH ULTRASOUND-TRIGGERED RELEASE AND IMAGING FUNCTIONALITIES” (NATIONAL YANG-MING UNIVERSITY, priority 2013, published 2014)

How the values were obtained:
[1] = test system: breast tumor cells (MDA-MB-231); test: In vitro cytotoxicity, cell viability by MTT assay; format: cell-based; details: with sonication for 20 min, then 24 hr culture; 75 μL NB suspension or CPT 1.3 μg/mL
Protocol: FIG. 6 is a diagram showing the cell viability of breast tumor cells (MDA-MB-231) cultured under different conditions. In FIG. 6(a), the control group was performed on the cells cultured without adding the model drug (CPT) and performing sonication. In FIG. 6(b), cells were sonicated for 20 min. In FIG. 6(c), cells were cultured with the medium containing 75 μL of CPT-loaded CHC/SPIO NB suspension without sonication for 20 min. In FIG. 6(d), cells were cultured with the medium containing 75 μL of CPT-loaded CHC/SPIO NB suspension with sonication for 20 min. In FIG. 6(e), cells were cultured with CPT-containing medium (CPT/medium concentration: 1.3 μg/mL) under sonication for 20 min. […] After above treatments, the cell mediums were removed and the cells were washed with PBS. Then, fresh medium was added and further cultured for 24 hr. The cell viability was measured by MTT assay.
Thus, CPT molecules could efficiently access tumor cells. Moreover, the amphiphilic CHC molecules from ruptured bubbles also might be helpful to increase transmembrane permeation.

[2] = Release test with and without sonication, confocal microscope observation of leakage and dispersion; format: physicochemical; details: sonication 1 MHz, 1 W/cm^2, duty ratio 20%, 20 min
Protocol: FIG. 5 is a diagram showing the confocal microscope observation for CPT-loaded CHC/SPIO NBs (FIG. 5(a)) and FITC-loaded CHC/SPIO NBs (FIG. 5(b), indicated by arrows). […] FIGS. 5(d) and (e) show the confocal microscope observation for CPT-loaded CHC/SPIO NBs after the release test without sonication and with sonication (ultrasonic frequency: 1 MHz, power density: 1 W/cm^2, duty ratio: 20%) for 20 min, respectively. […] Scale bar 5 μm.
The confocal photographs of the as-received CHC/SPIO MBs loaded with hydrophobic agent (CPT, blue fluorescence) and hydrophilic agent (FITC, green fluorescence) are shown in FIGS. 5(a) and 5(b), respectively. […] This implies that CHC/SPIO MBs can carry both hydrophobic and hydrophilic agents, and the encapsulation ability of CHC/SPIO MBs for CPT (a hydrophobic agent) was better than that for FITC (a hydrophilic agent). […] This was not observed for the CPT-containing medium (without CHC) under the same sonication for 20 min.

CC[C@@]1(O)C(=O)OCc2c1cc1n(c2=O)Cc2cc3ccccc3nc2-1 [CPT, camptothecin]
cytotoxicity / cell viability [1]: higher viability than those treated with CPT-loaded CHC/SPIO NBs under sonication
dispersion of CPT in hydrophilic medium [2]: not well-dispersed under sonication
